Values joined by “and” are separate entries in the source; they are usually repeats but may differ in a detail not shown here. Equal values may be shown once. After the bases stand the sugars from the 5' end (letter, count) and the backbone: PS all phosphorothioate, else s phosphorothioate and o phosphodiester by linkage. Methylation of C is not given here. e = 2'-O-(2-methoxyethyl) (MOE); k = constrained ethyl (cEt); d = 2'-deoxy (DNA)

The values below come from the OligoGym collection.

One data set addresses IRF4. The note with it: ASO, MM.1R, 0.074 µM.
As to “CAGTGATGTCAGGTTT (sugars k2 d9 e3 k2, PS)”, the target mRNA inhibition was determined as 0%.

Consider “CTGCTTGAGGTTTTCC (sugars e1 k2 d9 k2 e2, PS)”, for which the target mRNA inhibition is 6%.

As for “GTGATGTCAGGTTTTC (sugars k3 d9 k3 e1, PS)”, the target mRNA inhibition was found to be 16%.

Staying with this data set, now noted: ASO, MM.1R, 0.222 µM.
As for “CAGTGATGTCAGGTTT (sugars k2 d9 e3 k2, PS)”, the target mRNA inhibition turned out to be 12%.

As for “CTGCTTGAGGTTTTCC (sugars e1 k2 d9 k2 e2, PS)”, the target mRNA inhibition was determined as 21%.

Take “GTGATGTCAGGTTTTC (sugars k3 d9 k3 e1, PS)”: the target mRNA inhibition turned out to be 41%.

The same data set, now with this note: ASO, MM.1R, 0.666 µM.
On to “CAGTGATGTCAGGTTT (sugars k2 d9 e3 k2, PS)”, for which the target mRNA inhibition turned out to be 34%.

As for “CTGCTTGAGGTTTTCC (sugars e1 k2 d9 k2 e2, PS)”, the target mRNA inhibition is 38%.

As to “GTGATGTCAGGTTTTC (sugars k3 d9 k3 e1, PS)”, the target mRNA inhibition came out at 66%.

The data set is the same for the next values; noted with them: ASO, MM.1R, 1 µM.
With CAGAGCTCCGGAGTCA (sugars k3 d10 k3, PS), the target mRNA inhibition was -6%.

For the sequence “AGCATTTTATCATCCG (sugars kkkddddddddkekek, PS)”, the target mRNA inhibition was found to be 22%.

As to TCCGGGTGTGGCTGAT (sugars k3 d10 k3, PS), the target mRNA inhibition was 26%.

Consider CCCTCATCACCGAACA (sugars k3 d10 k3, PS), for which the target mRNA inhibition was -25%.

For “TTCATGTAAAGTCTGC (sugars kkddddddddddkeke, PS)”, the target mRNA inhibition was 49% and 28%.

Turning to TTTAGTATCACCTCTA (sugars k3 d10 k3, PS), the target mRNA inhibition was 30%.

Take “CGTGTGCTTGCCAAGC (sugars kkdddddddddekeke, PS)”: the target mRNA inhibition is 47% and 36%.

In the case of “TTGATGTGATAGCTGA (sugars k2 d9 e3 k2, PS)”, the target mRNA inhibition came out at 17%.

GCAGCCAAGGATAACC (sugars k3 d10 k3, PS): the target mRNA inhibition was determined as 6%.

Consider “AGCTTGATAAAGGCTG (sugars k2 d9 e3 k2, PS)”, for which the target mRNA inhibition was 3%.

Turning to “GTGATAGCTGAGCTGA (sugars kdddddddddkekeke, PS)”, the target mRNA inhibition turned out to be 16%.

As to “ATGTGTATTACTCTTA (sugars kkdddddddddkekek, PS)”, the target mRNA inhibition was 54% and 49%.

Turning to TCATCCGAAAAGACTG (sugars k3 d10 k3, PS), the target mRNA inhibition is 16%.

Take CTTTCCCATGGTTACT (sugars k3 d10 k3, PS): the target mRNA inhibition amounted to 8%.

With “GTGATAGCTGAGCTGA (sugars kkdddddddddkdkdk, PS)”, the target mRNA inhibition was determined as 34%.

As to “ATGTTAGCCAATTCCT (sugars k2 d9 e3 k2, PS)”, the target mRNA inhibition is 17% and 6%.

With “CTATAGTGTTCCAGGA (sugars kkdddddddddekeke, PS)”, the target mRNA inhibition came to 48%.

Turning to “GTGATGTCAGGTTTTC (sugars kkkdddddddddkeke, PS)”, the target mRNA inhibition turned out to be 34%.

“TCAGTTTGTGAAGCAT (sugars kkkdddddddddkeke, PS)”: the target mRNA inhibition came out at 53%.

Regarding GTAAGATCTCCATGGT (sugars k3 d10 k3, PS), the target mRNA inhibition was determined as 17%.

With “CAGTGATGTCAGGTTT (sugars k2 d9 e3 k2, PS)”, the target mRNA inhibition is 56%.

On to “TTATATACTGGTTGGT (sugars kkdddddddddkdkdk, PS)”, for which the target mRNA inhibition worked out at 18%.

Take “CTGTTACCGATGCTTC (sugars kkddddddddddkeke, PS)”: the target mRNA inhibition was 43% and 37%.

As for “AAGCAGTGATGTCAGG (sugars kkdddddddddkekek, PS)”, the target mRNA inhibition was 43% and 44%.

For the sequence “GACACTTTTAGAGAGG (sugars kkkdddddddddkeke, PS)”, the target mRNA inhibition is 24%.

Take “TTATATACTGGTTGGT (sugars kddddddddddkekek, PS)”: the target mRNA inhibition was 22%.

In the case of “GTGATAGCTGAGCTGA (sugars kddddddddddkekek, PS)”, the target mRNA inhibition is 29%.

Regarding “CTGCTTGAGGTTTTCC (sugars e1 k2 d9 k2 e2, PS)”, the target mRNA inhibition worked out at 52%.

Turning to GTCTGAGATGTCCAGC (sugars k3 d10 k3, PS), the target mRNA inhibition amounted to 7%.

Regarding “ACGGAAGTTTACACTG (sugars kkdddddddddkdkdk, PS)”, the target mRNA inhibition is -2%.

In the case of “AGGCACATCAATGTTT (sugars kkdddddddddekeke, PS)”, the target mRNA inhibition is 42% and 35%.

As to “GTGATGTCAGGTTTTC (sugars k3 d9 k3 e1, PS)”, the target mRNA inhibition worked out at 71%.

Regarding TAATCTGTATAGTTCT (sugars k3 d10 k3, PS), the target mRNA inhibition was determined as 42%.

Still in this data set, the particulars now being: ASO, MM.1R, 2 µM.
Regarding “CAGTGATGTCAGGTTT (sugars k2 d9 e3 k2, PS)”, the target mRNA inhibition amounted to 57%.

Regarding “CTGCTTGAGGTTTTCC (sugars e1 k2 d9 k2 e2, PS)”, the target mRNA inhibition is 60%.

With “GTGATGTCAGGTTTTC (sugars k3 d9 k3 e1, PS)”, the target mRNA inhibition worked out at 85%.

Still in this data set, the particulars now being: ASO, SK-MEL-28, 4 µM.
Consider ATATGACGACTTAAGC (sugars k3 d10 k3, PS), for which the target mRNA inhibition is 38%.

As for CCCCGTATCCCCGTAT (sugars k3 d10 k3, PS), the target mRNA inhibition is 45%.

Turning to AGCCAAGAGGTGCGAG (sugars k3 d10 k3, PS), the target mRNA inhibition was 38%.

On to GGTAAGGGCCCCGTGA (sugars k3 d10 k3, PS), for which the target mRNA inhibition amounted to 33%.

For the sequence GATACAAAACGGACTG (sugars k3 d10 k3, PS), the target mRNA inhibition worked out at 44%.

Regarding TGCTAGGACACAGCTG (sugars k3 d10 k3, PS), the target mRNA inhibition is 43%.

For the sequence CCTAAGTACCTGAAAT (sugars k3 d10 k3, PS), the target mRNA inhibition was 11%.

ACTCATGGAGGATCAT (sugars k3 d10 k3, PS): the target mRNA inhibition turned out to be 19%.

For the sequence AACTCTCCTGTTTTCG (sugars k3 d10 k3, PS), the target mRNA inhibition worked out at 42%.

Consider GTAAAGGTAAAGGCAC (sugars k3 d10 k3, PS), for which the target mRNA inhibition was 42%.

Take GGGCTTCCTAGGTTTC (sugars k3 d10 k3, PS): the target mRNA inhibition stood at 39%.

Take CAAATTCAGGAGAGCC (sugars k3 d10 k3, PS): the target mRNA inhibition was determined as 19%.

For CTTAAGCTAAACTCCT (sugars k3 d10 k3, PS), the target mRNA inhibition is 27%.

On to CAAAACTACTATTGTG (sugars k3 d10 k3, PS), for which the target mRNA inhibition turned out to be 23%.

Regarding GTGCAGGAGAGGCTGA (sugars k3 d10 k3, PS), the target mRNA inhibition worked out at 32%.

Turning to TTAATTATGCAGAAGC (sugars k3 d10 k3, PS), the target mRNA inhibition stood at 13%.

With AGCCAAAGTGACTTAA (sugars k3 d10 k3, PS), the target mRNA inhibition stood at 58%.

As for CCCAAGATCGAGCGGT (sugars k3 d10 k3, PS), the target mRNA inhibition came out at 28%.

Regarding GGTCAATTTTCACAGT (sugars k3 d10 k3, PS), the target mRNA inhibition is 64%.

On to ACGCCTTAATGTTCAG (sugars k3 d10 k3, PS), for which the target mRNA inhibition was 77%.

CGACAGTCCGGTTAGC (sugars k3 d10 k3, PS): the target mRNA inhibition was determined as 11%.

AATCTTCTGCTGATCC (sugars k3 d10 k3, PS): the target mRNA inhibition came out at 72%.

Take ACTGAGTGTGCAGTTC (sugars k3 d10 k3, PS): the target mRNA inhibition is 36%.

In the case of CTTGCAGCTCTGACAA (sugars k3 d10 k3, PS), the target mRNA inhibition was 9%.

Take TTATATACTGGTTGGT (sugars k3 d10 k3, PS): the target mRNA inhibition was determined as 49%.

Turning to AGTTTACTAACTGGCT (sugars k3 d10 k3, PS), the target mRNA inhibition came out at 63%.

With ATAGTTGTCTGGCTAG (sugars k3 d10 k3, PS), the target mRNA inhibition worked out at 52%.

For TCTTTTTAGTTCATAC (sugars k3 d10 k3, PS), the target mRNA inhibition was 26%.

Consider TGAAAGACCCCAGCTA (sugars k3 d10 k3, PS), for which the target mRNA inhibition was determined as 4%.

For CCCAAGCCTTGAAGAG (sugars k4 d8 k4, PS), the target mRNA inhibition came to 22%.

In the case of CTAATCCACAATCAGC (sugars k3 d10 k3, PS), the target mRNA inhibition was 45%.

As for AGACCAGGATTCGCCA (sugars k3 d10 k3, PS), the target mRNA inhibition came out at 33%.

As for GCCAAACAAACAGAGG (sugars k3 d10 k3, PS), the target mRNA inhibition came out at 22%.

TCTTGAATAGAGGAAT (sugars k3 d10 k3, PS): the target mRNA inhibition stood at 42%.

For AGCAAACCCTGCACTC (sugars k3 d10 k3, PS), the target mRNA inhibition came to 8%.

Take GCTGAGATAGGAAGCA (sugars k3 d10 k3, PS): the target mRNA inhibition stood at 19%.

As to ATCGAGATCAGTCTCA (sugars k3 d10 k3, PS), the target mRNA inhibition is 76%.

For the sequence ACACTTTGTACGGGTC (sugars k3 d10 k3, PS), the target mRNA inhibition was determined as 56%.

In the case of GTTGACAAATAAGGTA (sugars k3 d10 k3, PS), the target mRNA inhibition is 60%.

With TCACAGGTAAGGGCCC (sugars k3 d10 k3, PS), the target mRNA inhibition was determined as 47%.

On to AAGAAGCAAGTCGGTC (sugars k3 d10 k3, PS), for which the target mRNA inhibition came out at 55%.

For the sequence ATCGAGCGGTGAAACT (sugars k3 d10 k3, PS), the target mRNA inhibition amounted to 29%.

As for AGCCAACTTATAGCAC (sugars k3 d10 k3, PS), the target mRNA inhibition is 54%.

Regarding CCAACGACAGCATAGC (sugars k3 d10 k3, PS), the target mRNA inhibition is 76%.

Turning to CACGAAGATTCAAAAG (sugars k3 d10 k3, PS), the target mRNA inhibition came out at 10%.

AATTTCCATTGGAGGA (sugars k3 d10 k3, PS): the target mRNA inhibition is 33%.

As to ATTCATTTTATGGACC (sugars k3 d10 k3, PS), the target mRNA inhibition came out at 42%.

As for GTACAGTCCACTCCAC (sugars k3 d10 k3, PS), the target mRNA inhibition was 10%.

In the case of TGTAATGTAGGGATAC (sugars k3 d10 k3, PS), the target mRNA inhibition is 53%.

As for TGGCAGTCTACAGAAC (sugars k3 d10 k3, PS), the target mRNA inhibition is -22%.

As for GGCGGAGCATCAACAA (sugars k3 d10 k3, PS), the target mRNA inhibition came out at 60%.

As to TGTAAGGTCTGAGAGC (sugars k3 d10 k3, PS), the target mRNA inhibition came out at 25%.

Take ACGGACGGAGGCGGCA (sugars k3 d10 k3, PS): the target mRNA inhibition was 11%.

Turning to AATGAAGATCCACTAG (sugars k3 d10 k3, PS), the target mRNA inhibition is 61%.

Regarding TAAGTGATAGGTATAC (sugars k3 d10 k3, PS), the target mRNA inhibition is 60%.

Take CCTTAACCAATCCCAA (sugars k3 d10 k3, PS): the target mRNA inhibition came to 43%.

In the case of ACGGAAGTTTACACTG (sugars k3 d10 k3, PS), the target mRNA inhibition was determined as 77%.

With GACAGCATAGCATTAT (sugars k3 d10 k3, PS), the target mRNA inhibition is 72% and 77%.
